Results: PubChem BioAssay (NCI)
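96-well plates; 48 h exposure; 5 concentrations. Endpoints by linear interpolation between flanking doses. Not reached: highest tested concentration assigned. TGI denotes the concentration required for complete inhibition of growth.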

Assays:
Assay in all cases: NCI-60 cell line screen, 48 h
IGROV1 ovarian = system: IGROV1 ovarian
SF-295 CNS = system: SF-295 CNS
NCI/ADR-RES ovarian = system: NCI/ADR-RES ovarian
SK-MEL-5 melanoma = system: SK-MEL-5 melanoma
MCF7 breast = system: MCF7 breast
UACC-257 melanoma = system: UACC-257 melanoma
HS 578T breast = system: HS 578T breast
MOLT-4 leukemia = system: MOLT-4 leukemia
SR leukemia = system: SR leukemia
SNB-75 CNS = system: SNB-75 CNS
MALME-3M melanoma = system: MALME-3M melanoma
SF-268 CNS = system: SF-268 CNS
MDA-MB-231 breast = system: MDA-MB-231 breast
HOP-92 NSCLC = system: HOP-92 NSCLC
SK-MEL-28 melanoma = system: SK-MEL-28 melanoma
PC-3 prostate = system: PC-3 prostate
HOP-62 NSCLC = system: HOP-62 NSCLC
OVCAR-8 ovarian = system: OVCAR-8 ovarian
DU-145 prostate = system: DU-145 prostate
NCI-H522 lung = system: NCI-H522 lung
RXF 393 renal = system: RXF 393 renal
M14 melanoma = system: M14 melanoma
MDA-MB-435 = system: MDA-MB-435
SW-620 colon = system: SW-620 colon
MDA-N = system: MDA-N
ACHN renal = system: ACHN renal
CCRF-CEM leukemia = system: CCRF-CEM leukemia
786-0 renal = system: 786-0 renal
NCI-H460 lung = system: NCI-H460 lung
A549 NSCLC = system: A549 NSCLC
BT-549 breast = system: BT-549 breast
HCC-2998 colon = system: HCC-2998 colon
HCT-15 colon = system: HCT-15 colon
HCT-116 colon = system: HCT-116 colon
SF-539 CNS = system: SF-539 CNS
UO-31 renal = system: UO-31 renal
U251 CNS = system: U251 CNS
SK-MEL-2 melanoma = system: SK-MEL-2 melanoma
T-47D breast = system: T-47D breast
UACC-62 melanoma = system: UACC-62 melanoma
A498 renal = system: A498 renal
OVCAR-4 ovarian = system: OVCAR-4 ovarian
TK-10 renal = system: TK-10 renal
RPMI-8226 leukemia = system: RPMI-8226 leukemia
HT29 colon = system: HT29 colon
SK-OV-3 ovarian = system: SK-OV-3 ovarian
NCI-H23 lung = system: NCI-H23 lung
COLO 205 colon = system: COLO 205 colon
SN12C renal = system: SN12C renal
OVCAR-3 ovarian = system: OVCAR-3 ovarian
OVCAR-5 ovarian = system: OVCAR-5 ovarian
NCI-H226 lung = system: NCI-H226 lung
CAKI-1 renal = system: CAKI-1 renal
K-562 leukemia = system: K-562 leukemia
KM12 colon = system: KM12 colon
SNB-19 CNS = system: SNB-19 CNS
HL-60(TB) leukemia = system: HL-60(TB) leukemia
LOX IMVI melanoma = system: LOX IMVI melanoma

With `O=C1CC(=O)NC(=NN2C(=O)CSC2c2ccccc2)N1` (stereo not given) the TGI (IGROV1 ovarian) was greater than 100 µM, the TGI (SF-295 CNS) was greater than 100 µM and the TGI (NCI/ADR-RES ovarian) was greater than 100 µM. It also gave a TGI (SK-MEL-5 melanoma) greater than 100 µM, a TGI (MCF7 breast) greater than 100 µM and a TGI (UACC-257 melanoma) greater than 100 µM. It also gave a TGI (HS 578T breast) greater than 100 µM, a TGI (MOLT-4 leukemia) greater than 100 µM and a TGI (SR leukemia) greater than 100 µM. The TGI (SNB-75 CNS) was greater than 100 µM, the TGI (MALME-3M melanoma) was greater than 100 µM and the TGI (SF-268 CNS) was greater than 100 µM. The TGI (MDA-MB-231 breast) was greater than 100 µM, the TGI (HOP-92 NSCLC) was greater than 100 µM and the TGI (SK-MEL-28 melanoma) was greater than 100 µM. For the same compound, the TGI (PC-3 prostate) was greater than 100 µM, the TGI (HOP-62 NSCLC) was greater than 100 µM and the TGI (OVCAR-8 ovarian) was greater than 100 µM. The TGI (DU-145 prostate) was greater than 100 µM, the TGI (NCI-H522 lung) was greater than 100 µM and the TGI (RXF 393 renal) was greater than 100 µM. It also gave a TGI (M14 melanoma) greater than 100 µM, a TGI (MDA-MB-435) greater than 100 µM and a TGI (SW-620 colon) greater than 100 µM. The TGI (MDA-N) was greater than 100 µM, the TGI (ACHN renal) was greater than 100 µM and the TGI (CCRF-CEM leukemia) was greater than 100 µM. For the same compound, the TGI (786-0 renal) was greater than 100 µM, the TGI (NCI-H460 lung) was greater than 100 µM and the TGI (A549 NSCLC) was greater than 100 µM. It also gave a TGI (BT-549 breast) greater than 100 µM, a TGI (HCC-2998 colon) greater than 100 µM and a TGI (HCT-15 colon) greater than 100 µM. For the same compound, the TGI (HCT-116 colon) was greater than 100 µM, the TGI (SF-539 CNS) was greater than 100 µM and the TGI (UO-31 renal) was greater than 100 µM. The TGI (U251 CNS) was greater than 100 µM, the TGI (SK-MEL-2 melanoma) was greater than 100 µM and the TGI (T-47D breast) was greater than 100 µM. It also gave a TGI (UACC-62 melanoma) greater than 100 µM, a TGI (A498 renal) greater than 100 µM and a TGI (OVCAR-4 ovarian) greater than 100 µM. For the same compound, the TGI (TK-10 renal) was greater than 100 µM, the TGI (RPMI-8226 leukemia) was greater than 100 µM and the TGI (HT29 colon) was greater than 100 µM. For the same compound, the TGI (SK-OV-3 ovarian) was greater than 100 µM, the TGI (NCI-H23 lung) was greater than 100 µM and the TGI (COLO 205 colon) was greater than 100 µM. The TGI (SN12C renal) was greater than 100 µM, the TGI (OVCAR-3 ovarian) was greater than 100 µM and the TGI (OVCAR-5 ovarian) was greater than 100 µM. For the same compound, the TGI (NCI-H226 lung) was greater than 100 µM, the TGI (CAKI-1 renal) was greater than 100 µM and the TGI (K-562 leukemia) was greater than 100 µM. The TGI (KM12 colon) was greater than 100 µM.
For `CN(C)CCCNC(=O)N/N=C/c1ccc([N+](=O)[O-])cc1`, the TGI (IGROV1 ovarian) was greater than 100 µM, the TGI (SF-295 CNS) was greater than 100 µM and the TGI (NCI/ADR-RES ovarian) was greater than 100 µM. It also gave a TGI (SK-MEL-5 melanoma) greater than 100 µM, a TGI (MCF7 breast) greater than 100 µM and a TGI (UACC-257 melanoma) greater than 100 µM. It also gave a TGI (HS 578T breast) greater than 100 µM, a TGI (MOLT-4 leukemia) greater than 100 µM and a TGI (SR leukemia) greater than 100 µM. For the same compound, the TGI (SNB-75 CNS) was greater than 100 µM, the TGI (MALME-3M melanoma) was greater than 100 µM and the TGI (SF-268 CNS) was greater than 100 µM. For the same compound, the TGI (MDA-MB-231 breast) was greater than 100 µM, the TGI (SK-MEL-28 melanoma) was greater than 100 µM and the TGI (SNB-19 CNS) was greater than 100 µM. For the same compound, the TGI (PC-3 prostate) was greater than 100 µM, the TGI (HOP-62 NSCLC) was greater than 100 µM and the TGI (OVCAR-8 ovarian) was greater than 100 µM. For the same compound, the TGI (DU-145 prostate) was greater than 100 µM, the TGI (NCI-H522 lung) was greater than 100 µM and the TGI (M14 melanoma) was greater than 100 µM. It also gave a TGI (MDA-MB-435) greater than 100 µM, a TGI (SW-620 colon) greater than 100 µM and a TGI (MDA-N) greater than 100 µM. For the same compound, the TGI (ACHN renal) was greater than 100 µM, the TGI (CCRF-CEM leukemia) was greater than 100 µM and the TGI (786-0 renal) was greater than 100 µM. The TGI (NCI-H460 lung) was greater than 100 µM, the TGI (A549 NSCLC) was greater than 100 µM and the TGI (BT-549 breast) was greater than 100 µM. The TGI (HCC-2998 colon) was greater than 100 µM, the TGI (HCT-15 colon) was greater than 100 µM and the TGI (HCT-116 colon) was greater than 100 µM. For the same compound, the TGI (HL-60(TB) leukemia) was greater than 100 µM, the TGI (SF-539 CNS) was greater than 100 µM and the TGI (UO-31 renal) was greater than 100 µM. It also gave a TGI (U251 CNS) greater than 100 µM, a TGI (SK-MEL-2 melanoma) greater than 100 µM and a TGI (T-47D breast) greater than 100 µM. It also gave a TGI (UACC-62 melanoma) greater than 100 µM, a TGI (A498 renal) greater than 100 µM and a TGI (TK-10 renal) greater than 100 µM. For the same compound, the TGI (HT29 colon) was greater than 100 µM, the TGI (SK-OV-3 ovarian) was greater than 100 µM and the TGI (NCI-H23 lung) was greater than 100 µM. The TGI (COLO 205 colon) was greater than 100 µM, the TGI (SN12C renal) was greater than 100 µM and the TGI (OVCAR-3 ovarian) was greater than 100 µM. For the same compound, the TGI (OVCAR-5 ovarian) was greater than 100 µM, the TGI (NCI-H226 lung) was greater than 100 µM and the TGI (CAKI-1 renal) was greater than 100 µM. For the same compound, the TGI (K-562 leukemia) was greater than 100 µM and the TGI (KM12 colon) was greater than 100 µM.
For `CC(=O)C1=C(c2ccccc2)N(C2OC(CO)C(O)C(O)C2O)C(S)=C(C#N)C1c1ccc(Cl)cc1` (stereo not given), the TGI (IGROV1 ovarian) was greater than 100 µM, the TGI (LOX IMVI melanoma) was 34.1 µM and the TGI (SF-295 CNS) was 99.6 µM. For the same compound, the TGI (NCI/ADR-RES ovarian) was greater than 100 µM, the TGI (SK-MEL-5 melanoma) was 34.9 µM and the TGI (MCF7 breast) was 42 µM. For the same compound, the TGI (UACC-257 melanoma) was 49.4 µM, the TGI (HS 578T breast) was 78.5 µM and the TGI (MOLT-4 leukemia) was 35.3 µM. It also gave a TGI (SR leukemia) greater than 100 µM, a TGI (SNB-75 CNS) of 78.8 µM and a TGI (MALME-3M melanoma) of 50.4 µM. It also gave a TGI (SF-268 CNS) of 73.9 µM, a TGI (MDA-MB-231 breast) of 61.8 µM and a TGI (HOP-92 NSCLC) of 88.7 µM. The TGI (SK-MEL-28 melanoma) was 41.6 µM, the TGI (SNB-19 CNS) was greater than 100 µM and the TGI (PC-3 prostate) was 42.2 µM. It also gave a TGI (HOP-62 NSCLC) of 59.9 µM, a TGI (OVCAR-8 ovarian) greater than 100 µM and a TGI (DU-145 prostate) greater than 100 µM. The TGI (NCI-H522 lung) was 48.1 µM, the TGI (RXF 393 renal) was 85.3 µM and the TGI (M14 melanoma) was 46.7 µM. The TGI (MDA-MB-435) was 51.2 µM, the TGI (SW-620 colon) was 34.5 µM and the TGI (MDA-N) was 51.5 µM. For the same compound, the TGI (ACHN renal) was greater than 100 µM, the TGI (CCRF-CEM leukemia) was greater than 100 µM and the TGI (786-0 renal) was 80.6 µM. It also gave a TGI (NCI-H460 lung) of 52.7 µM, a TGI (A549 NSCLC) greater than 100 µM and a TGI (BT-549 breast) of 35.6 µM. For the same compound, the TGI (HCC-2998 colon) was 34.3 µM, the TGI (HCT-15 colon) was greater than 100 µM and the TGI (HCT-116 colon) was 30.6 µM. The TGI (HL-60(TB) leukemia) was greater than 100 µM, the TGI (SF-539 CNS) was 50 µM and the TGI (UO-31 renal) was greater than 100 µM. The TGI (U251 CNS) was 35.2 µM, the TGI (SK-MEL-2 melanoma) was 29.2 µM and the TGI (T-47D breast) was 40.4 µM. The TGI (UACC-62 melanoma) was 30.8 µM, the TGI (A498 renal) was greater than 100 µM and the TGI (OVCAR-4 ovarian) was greater than 100 µM. The TGI (TK-10 renal) was greater than 100 µM, the TGI (RPMI-8226 leukemia) was greater than 100 µM and the TGI (HT29 colon) was greater than 100 µM. It also gave a TGI (NCI-H23 lung) greater than 100 µM, a TGI (COLO 205 colon) of 40.6 µM and a TGI (SN12C renal) greater than 100 µM. For the same compound, the TGI (OVCAR-3 ovarian) was 37.2 µM, the TGI (OVCAR-5 ovarian) was greater than 100 µM and the TGI (NCI-H226 lung) was 58.8 µM. For the same compound, the TGI (CAKI-1 renal) was 75 µM, the TGI (K-562 leukemia) was greater than 100 µM and the TGI (KM12 colon) was 42.1 µM.
